Test results published in publication PMC11527646, “Pharmacological blockade of the mast cell MRGPRX2 receptor supports investigation of its relevance in skin disorders” (Frontiers in Immunology, 2024).
Where “and” joins values, the source holds several entries; their conditions need not be identical. Equal entries are not always repeated. Entries after “also recorded” stand apart in the source; their conditions may differ.

How the values were obtained:
Format in all cases: in vivo, mouse
[1] = Blood-free concentration at end of itch observation period; details: 3 mg/kg PO, average ± SD
Description: (§1) Figure 6 Oral treatment with the potent and selective MRGPRX2 antagonist, Compound B (3 mg/kg), blocks Cpd 48/80–induced itch response using human MRGPRX2 knock-in mice. […] Average ± SD blood-free concentration of antagonist measured at end of “itch” observation period was 19 ± 16 nM Compound B.
This study provides pharmacological evidence that MRGPRX2 is solely responsible for mediating an SP response in a human tissue, in this instance, skin. Finally, human MRGPRX2 knock-in mice were used to provide initial proof of target engagement of MRGPRX2 antagonists in the skin using an established behavioral scratching model.

[2] = system: wild-type mice (C57BL6J strain); test: Cpd 48/80-induced itch behavioral study in wild-type mice
Description: (§2) On the day of the experiment, animals were allowed to acclimatize to the test chamber for 10 min prior to injection. Mice received a single PO dose of Compound B (or vehicle) as a suspension in 1% methylcellulose at a dose level of 3 mg/kg (dose volume 10 mL/kg). Scratching behavior was monitored over 30 min following a single intra-dermal injection of 10 μL of Cpd 48/80 (10 μg/mL) or vehicle (saline) at 3 h post-dose of the antagonist. A bout of scratching was defined as a hindpaw directed continuous scratching movement at the injection site. The scratching behavior scorer was blinded to treatment.
Supplemental Figure 3: Oral treatment with the potent and selective human MRGPRX2 […]
type mice. The itch behavioral study for wild-type mice (C57BL6J strain) was performed the same way as descripted in the Methods section as for human MRGPRX2 knock-in mice. Compound 48/80 […]
control (18.4 +/- 3.8, n=7) mice (mean +/- SEM; *P < 0.05, Student's t test). As expected, no effect on the scratching behavior (39.8 +/- 12.6, n=6; P=0.795) was observed by oral administration of Compound B to the Compound 48/80 treated mice. […]

[3] = system: human MRGPRX2 knock-in mice; test: Cpd 48/80-induced itch (scratching) behavioral model; details: 3 mg/kg PO, Cpd 48/80 intradermal 3 h post-dose, scratching over 30 min
From the text: The generation and initial characterization of human MRGPRX2 knock-in (KI) mice has been previously reported ([15]). All experimental protocols were approved by the Animal Care and Use Committee at the Johns Hopkins University School of Medicine and studies conducted according to GSK’s Policy on the Care, Welfare and Treatment of Animals. All mice used for this study were 2- to 4-month old males and females (20–30 g) and randomized on body weight and sex using three groups of 18 animals per group.
as §2, with “treatment. […]” for “treatment.”
as §1

For `C[C@@H](C(=O)Nc1cnc(Oc2ccc(F)cc2F)cn1)N1CCC(F)(F)[C@@H](c2cc[n+]([O-])cc2)C1` [Compound B], the “Blood-free concentration of antagonist” value [1] was 19 ± 16 nM and 19 nM, the “Effect on Cpd 48/80-induced scratching behavior” value ([2]; 3 mg/kg oral, wild-type mice) was “did not block; also recorded: no effect was observed” and the Scratching counts ([2]; Compound B 3 mg/kg oral in Compound 48/80 treated wild-type mice, mean +/- SEM, n=6) was 39.8 +/- 12.6. The “Effect on Cpd 48/80-induced itch response” value [3] was “significant blockade; also recorded: completely block”.
